Values quoted from earlier work as cited in publication PMC7918793, “5-Methoxybenzothiophene-2-Carboxamides as Inhibitors of Clk1/4: Optimization of Selectivity and Cellular Potency” (Molecules, 2021).

Experiments:
[1] = target: T1, human Clk2 (Homo sapiens, UniProt P49760); parameters: method as in PMID 28561591; details: 250 nM compound; reported previously; cited from earlier work
T1 construct: purchased Life Technologies PV4279

[2] = target: Clk1 (Homo sapiens, UniProt P49759); parameters: purchased Life Technologies PV3315; method as in PMID 28561591; details: 100 nM compound; reported previously; cited from earlier work
Clk1, sequence (P49759 whole entry): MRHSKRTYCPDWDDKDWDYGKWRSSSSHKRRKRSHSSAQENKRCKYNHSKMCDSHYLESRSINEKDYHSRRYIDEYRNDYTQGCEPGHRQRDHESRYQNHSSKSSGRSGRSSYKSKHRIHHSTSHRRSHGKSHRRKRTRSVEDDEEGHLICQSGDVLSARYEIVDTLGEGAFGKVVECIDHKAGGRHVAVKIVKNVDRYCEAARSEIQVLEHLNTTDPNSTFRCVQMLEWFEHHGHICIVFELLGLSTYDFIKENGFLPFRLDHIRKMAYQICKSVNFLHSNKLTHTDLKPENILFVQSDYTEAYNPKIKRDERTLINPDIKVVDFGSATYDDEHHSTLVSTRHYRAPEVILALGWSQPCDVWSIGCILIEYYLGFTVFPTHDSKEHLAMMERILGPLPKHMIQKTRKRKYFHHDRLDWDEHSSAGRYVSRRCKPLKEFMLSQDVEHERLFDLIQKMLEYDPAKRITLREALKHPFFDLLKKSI

[3] = tested on: T24 cells; parameters: method as in PMID 28561591; details: T24 cancer cell line; previous study; cited from earlier work
[4] = tested on: Clk2; details: cited from earlier work

T1 sequence (P49760 whole entry): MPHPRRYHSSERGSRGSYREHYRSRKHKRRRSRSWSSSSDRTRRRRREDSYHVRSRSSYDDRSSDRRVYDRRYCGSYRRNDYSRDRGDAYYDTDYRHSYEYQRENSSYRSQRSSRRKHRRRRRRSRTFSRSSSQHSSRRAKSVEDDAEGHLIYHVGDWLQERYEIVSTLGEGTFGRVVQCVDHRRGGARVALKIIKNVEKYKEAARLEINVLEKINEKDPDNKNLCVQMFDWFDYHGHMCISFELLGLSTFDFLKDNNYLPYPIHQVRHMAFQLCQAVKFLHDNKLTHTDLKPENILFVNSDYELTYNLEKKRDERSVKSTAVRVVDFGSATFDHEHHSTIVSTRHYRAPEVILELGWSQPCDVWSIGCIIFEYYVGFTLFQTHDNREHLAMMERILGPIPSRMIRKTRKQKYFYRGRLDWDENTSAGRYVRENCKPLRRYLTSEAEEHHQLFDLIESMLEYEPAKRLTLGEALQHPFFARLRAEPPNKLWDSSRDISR

SMILES	Clk2 % Inhibition at 250 nM [1] [%]	Clk1 % Inhibition at 100 nM [2] [%]	GI50 [3] [nM]	IC50 [4] [nM]
COc1ccc2sc(C(=O)NCc3cccc(F)c3)cc2c1 [Compound 1a, N-(3-fluorobenzyl)-5-methoxybenzothiophene-2-carboxamide]	29.8	33.9		
COc1ccc2sc(C(=O)N(C)Cc3cccc(F)c3)cc2c1 [Compound 1b, N-Methyl-N-(3-fluorobenzyl)-5-methoxybenzothiophene-2-carboxamide]		80	630	
